# Test results published in patent US8975288B2 (priority 2013, dated 2015).
# Entries after “also recorded” stand apart in the source; their conditions may differ. Where two headings read alike, the source gives them in different places.
# Columns and labels:
# trans-translation = type: biochemical, E. coli; details: 10 μM final concentration; DHFR template lacking the stop codon; tagging efficiency vs no inhibitor control
# [1] = test system: B. anthracis Sterne (pXO1+, pXO2−); experiment: microbe, parasite or virus in culture; type: cell-based; details: Bacillus anthracis
# S. flexneri [2] = experiment: microbe, parasite or virus in culture; type: cell-based; details: Shigella flexneri
# B. subtilis = experiment: microbe, parasite or virus in culture; type: cell-based; details: Bacillus subtilis, 24 h, read-out: MIC B. subtilis
# WT B. anthracis Sterne = experiment: microbe, parasite or virus in culture; type: cell-based; details: Bacillus anthracis, 24 h, read-out: IC50 WT B. anthracis
# [3] = test system: S. aureus methicillin-susceptible strain, Newman; type: cell-based
# MRSA strain, Sanger 252 = type: cell-based, S. aureus
# Mycobacterium smegmatis = experiment: microbe, parasite or virus in culture; type: cell-based; details: Mycolicibacterium smegmatis, read-out: MIC Mycobacterium smegmatis
# E. coli TolC mutant = experiment: microbe, parasite or virus in culture; type: cell-based; details: Escherichia coli, read-out: MIC E. coil TolC
# WT+pUTE29 (empty vector) = experiment: microbe, parasite or virus in culture; type: cell-based, B. anthracis; details: Bacillus anthracis, 24 h, read-out: IC50 WT + pUTE29
# B. anthracis ΔclpX = experiment: microbe, parasite or virus in culture; type: cell-based; details: Bacillus anthracis, 24 h, read-out: IC50 ΔclpX
# S. flexneri [4] = experiment: microbe, parasite or virus in culture; type: cell-based; details: Shigella flexneri, 24 h, read-out: IC50 S. flexneri
# [5] = test system: Auto-luminescent M. tuberculosis (LuxTB); experiment: microbe, parasite or virus in culture; type: cell-based; details: Mycobacterium tuberculosis, read-out: IC50 M. tuberculosis
# B. anthracis spores = type: cell-based
# B. anthracis = type: cell-based
# B. anthracis Sterne = type: cell-based
# B. anthracis ΔclpX+pclpX = experiment: microbe, parasite or virus in culture; type: cell-based; details: Bacillus anthracis, 24 h, read-out: IC50 ΔclpX + pclpX
# HeLa cells = details: human
# ΔclpX+pUTE29 = experiment: microbe, parasite or virus in culture; type: cell-based, B. anthracis; details: Bacillus anthracis, 24 h, read-out: IC50 ΔclpX + pUTE29
# [6] = test system: Wild-type M. tuberculosis; experiment: microbe, parasite or virus in culture; type: cell-based; details: Mycobacterium tuberculosis, read-out: MIC against M. tuberculosis
# [7] = read-out: MIC Bacillus anthracis
# [8] = 24 h, read-out: MIC B. anthracis
# [9] = 24 h, read-out: MIC S. flexneri
compound,measurement,setting,value
"O=C(Nc1ccncc1)c1cccc(Cl)c1 [Compound 11, 3-chloro-N-(pyridin-4-yl)benzamide]",% inhibition in vitro,trans-translation,57.9%
same,MIC,[1]; read-out: MIC B. anthracis,> 500 µM
same,MIC,S. flexneri [2]; read-out: MIC S. flexneri,500 µM
"O=C(NC1CCCCC1)c1cccc(Cl)c1 [Compound 12, 3-chloro-N-cyclohexylbenzamide]",% inhibition in vitro,trans-translation,44.6%
same,MIC,[1]; read-out: MIC B. anthracis,> 500 µM
same,MIC,S. flexneri [2]; read-out: MIC S. flexneri,> 500 µM
"O=C(NC1CCCC1)c1cccc(Cl)c1 [Compound 13, 3-chloro-N-cyclopentylbenzamide]",% inhibition in vitro,trans-translation,71.6%
same,MIC,[1]; read-out: MIC B. anthracis,> 500 µM
same,MIC,S. flexneri [2]; read-out: MIC S. flexneri,> 500 µM
CS(=O)(=O)NCCn1nnnc1NC(=O)c1cccc(Cl)c1 [Compound 14],% inhibition in vitro,trans-translation,47.8%
"O=C(Nc1nnnn1CCNS(=O)(=O)c1ccccc1)c1cccc(Cl)c1 [Compound 16, 3-chloro-N-(1-(2-(phenylsulfonamido)ethyl)-1H-tetrazol-5-yl)benzamide]",% inhibition in vitro,trans-translation,37.0%
same,MIC,[1]; [7],400 µM
"NCCn1nnnc1NC(=O)c1cccc(Cl)c1 [Compound D, N-(1-(2-aminoethyl)-1H-tetrazol-5-yl)-3-chlorobenzamide]",MIC,B. subtilis,> 200 µM
same,% inhibition in vitro,trans-translation,52.3%
same,MIC,[1]; [8],> 200 µM
same,MIC,S. flexneri [2]; [9],> 200 µM
"CCCn1nnnc1NC(=O)c1cccc(Cl)c1 [Compound F2, reference compound]",IC50,WT B. anthracis Sterne,17.6 µM
same,Survival of S. aureus Newman,[3],only slightly reduced; also recorded: No colonies were recovered
same,Bacterial survival (cfu/ml) of MRSA,"MRSA strain, Sanger 252",significantly reduced bacterial survival in a synergistic manner
same,Direct antimicrobial activity against MRSA Sanger 252,"MRSA strain, Sanger 252",direct antimicrobial activity
same,Reduction of survival of MRSA Sanger 252,"MRSA strain, Sanger 252","at least 10,000 fold"
same,Survival of MRSA Sanger 252,"MRSA strain, Sanger 252",only slightly reduced
same,MIC,Mycobacterium smegmatis,25 µM
same,MIC,E. coli TolC mutant,12.5 µM
same,IC50,WT+pUTE29 (empty vector),27.5 µM
same,IC50,B. anthracis ΔclpX,27 µM
same,IC50,S. flexneri [4],5.95 µM
same,MIC,B. subtilis,26.1 µM
same,% inhibition in vitro,trans-translation,88.0%
same,IC50,[5]; 48 h,292 µM
same,IC50,[5]; 72 h,226 µM
same,IC50,[5]; 96 h,115 µM
same,MIC,[1]; [8],31.2 µM
same,MIC,[1]; read-out: MIC B. anthracis,25 µM
same,MIC,[1]; [7],25 µM
same,Vegetative cells from spores (inhibition of spore germination),B. anthracis spores,No vegetative cells were observed
same,MIC,S. flexneri [2]; [9],7.8 µM
same,MIC,S. flexneri [2]; read-out: MIC S. flexneri,3.13 µM
same,MIC,S. flexneri [2]; read-out: MIC Shigella flexneri,3.1 µM
same,Killing of B. anthracis in human whole blood vs vehicle control,B. anthracis,significantly enhanced killing
same,Bacterial survival (cfu/ml) of B. anthracis Sterne,B. anthracis Sterne,significantly reduced bacterial survival in a synergistic manner
same,Direct antimicrobial activity against B. anthracis Sterne,B. anthracis Sterne,direct antimicrobial activity
same,Survival of B. anthracis Sterne vs vehicle control,B. anthracis Sterne,negligible effect on survival
same,IC50,B. anthracis ΔclpX+pclpX,14.8 µM
same,Dose at which cytotoxicity in mammalian cells is seen,HeLa cells,500 to 1000 µM
same,IC50,ΔclpX+pUTE29,22.3 µM
"CN(C)c1cccc2c(S(=O)(=O)NCCn3nnnc3NC(=O)c3cccc(Cl)c3)cccc12 [Dansyl-F2, 3-chloro-N-(1-(2-(5-(dimethylamino)naphthalene-1-sulfonamido)ethyl)-1H-tetrazol-5-yl)benzamide]",IC50,WT B. anthracis Sterne,5.28 µM
same,MIC,[6],~50 µM
same,MIC,E. coli TolC mutant,25 µM
same,IC50,WT+pUTE29 (empty vector),9.88 µM
same,IC50,B. anthracis ΔclpX,5.93 µM
same,IC50,S. flexneri [4],> 200 µM
same,MIC,B. subtilis,13.3 µM
same,% inhibition in vitro,trans-translation,89.1%
same,IC50,[5]; 48 h,181 µM
same,IC50,[5]; 72 h,100 µM
same,IC50,[5]; 96 h,96.4 µM
same,MIC,[1]; [8],7.8 µM
same,MIC,[1]; [7],5.3 µM
same,Vegetative cells from spores (inhibition of spore germination),B. anthracis spores,No vegetative cells were observed
same,MIC,S. flexneri [2]; [9],> 200 µM
same,IC50,B. anthracis ΔclpX+pclpX,6.22 µM
same,IC50,ΔclpX+pUTE29,6.28 µM
CCCCCCCCCC(=O)N[C@@H](Cc1c[nH]c2ccccc12)C(=O)N[C@H](CC(N)=O)C(=O)N[C@@H](CC(=O)O)C(=O)N[C@@H]1C(=O)NCC(=O)N[C@@H](CCCN)C(=O)N[C@@H](CC(=O)O)C(=O)N[C@H](C)C(=O)N[C@@H](CC(=O)O)C(=O)NCC(=O)N[C@H](CO)C(=O)N[C@@H]([C@H](C)CC(=O)O)C(=O)N[C@@H](CC(=O)c2ccccc2N)C(=O)O[C@@H]1C [daptomycin],Effect on parental and complemented B. anthracis strains,B. anthracis Sterne,not significantly affected
LL-37,Survival of S. aureus Newman,[3],only slightly reduced
same,Survival of MRSA Sanger 252,"MRSA strain, Sanger 252",only slightly reduced
same,Survival of B. anthracis Sterne vs vehicle control,B. anthracis Sterne,negligible effect on survival
